System: 648629-189-R-J1-PDC spheroids with HUVEC/MSC, viability
Test: Anticancer human tumor 648629-189-R-J1-PDC patient-derived bladder carcinoma cell line growth inhibition [PI3K]
Conditions: for IC50: curve of first compound; for viability, T/C: stronger effect = lower value; active = viability on the fitted dose curve at most 10% of control; inactive = the rest
Method in brief: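 Agents were dosed from a top concentration near clinical Cmax (otherwise 10 microM) in half-log decrements, alone or combined with PI3K inhibitors. The spheroids contain tumor cells plus endothelial (HUVEC) and MSC stroma; viability is measured.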

[1] = second compound 0.0316 µM, first compound 0.0316 µM
[2] = second compound 0.0316 µM, first compound 0.1 µM
[3] = second compound 0.1 µM, first compound 0.0316 µM
[4] = second compound 0.1 µM, first compound 0.1 µM
[5] = second compound 0.316 µM, first compound 0.0316 µM
[6] = second compound 0.316 µM, first compound 0.1 µM
[7] = second compound 1 µM, first compound 0.0316 µM
[8] = second compound 1 µM, first compound 0.1 µM
[9] = second compound 0.0316 µM, first compound 0.316 µM
[10] = second compound 0.0316 µM, first compound 1 µM
[11] = second compound 0.0316 µM, first compound 3.16 µM
[12] = second compound 0.0316 µM, first compound 10 µM
[13] = second compound 0.1 µM, first compound 0.316 µM
[14] = second compound 0.1 µM, first compound 1 µM
[15] = second compound 0.1 µM, first compound 3.16 µM
[16] = second compound 0.1 µM, first compound 10 µM
[17] = second compound 0.316 µM, first compound 0.316 µM
[18] = second compound 0.316 µM, first compound 1 µM
[19] = second compound 0.316 µM, first compound 3.16 µM
[20] = second compound 0.316 µM, first compound 10 µM
[21] = second compound 1 µM, first compound 0.316 µM
[22] = second compound 1 µM, first compound 1 µM
[23] = second compound 1 µM, first compound 3.16 µM
[24] = second compound 1 µM, first compound 10 µM
[25] = second compound 3.16 µM, first compound 0.0316 µM
[26] = second compound 3.16 µM, first compound 0.1 µM
[27] = second compound 3.16 µM, first compound 0.316 µM
[28] = second compound 3.16 µM, first compound 1 µM
[29] = second compound 3.16 µM, first compound 3.16 µM
[30] = second compound 3.16 µM, first compound 10 µM
[31] = second compound 10 µM, first compound 0.0316 µM
[32] = second compound 10 µM, first compound 0.1 µM
[33] = second compound 10 µM, first compound 0.316 µM
[34] = second compound 10 µM, first compound 1 µM
[35] = second compound 10 µM, first compound 3.16 µM
[36] = second compound 10 µM, first compound 10 µM
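Note: spheroids exposed to agents for seven days before reading.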
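Throughout, for viability, T/C: percent of vehicle control luminescence where 100% = DMSO treated spheroids.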

CC(=O)c1c(C)c2cnc(Nc3ccc(N4CCNCC4)cn3)nc2n(C2CCCC2)c1=O + CC(Nc1ccc2c(c1)OCCn1cc(N3C(=O)OCC3C(F)F)nc1-2)C(N)=O
inactive: viability, T/C (second compound 0.00316 µM, first compound 0.000316 µM) 102% | viability, T/C (second compound 0.00316 µM, first compound 0.001 µM) 103% | viability, T/C (second compound 0.00316 µM, first compound 0.00316 µM) 105% | viability, T/C (second compound 0.00316 µM, first compound 0.01 µM) 95.5% | viability, T/C (second compound 0.00316 µM, first compound 0.0316 µM) 108% | viability, T/C (second compound 0.00316 µM, first compound 0.1 µM) 112% | viability, T/C (second compound 0.01 µM, first compound 0.000316 µM) 101% | viability, T/C (second compound 0.01 µM, first compound 0.001 µM) 103% | viability, T/C (second compound 0.01 µM, first compound 0.00316 µM) 88% | viability, T/C (second compound 0.01 µM, first compound 0.01 µM) 99.4% | viability, T/C (second compound 0.01 µM, first compound 0.0316 µM) 98.9% | viability, T/C (second compound 0.01 µM, first compound 0.1 µM) 104% | viability, T/C (second compound 0.0316 µM, first compound 0.000316 µM) 88.5% | viability, T/C (second compound 0.0316 µM, first compound 0.001 µM) 105% | viability, T/C (second compound 0.0316 µM, first compound 0.00316 µM) 95.9% | viability, T/C (second compound 0.0316 µM, first compound 0.01 µM) 99.9% | viability, T/C [1] 97.4% | viability, T/C [2] 96.4% | viability, T/C (second compound 0.1 µM, first compound 0.000316 µM) 104% | viability, T/C (second compound 0.1 µM, first compound 0.001 µM) 92.1% | viability, T/C (second compound 0.1 µM, first compound 0.00316 µM) 82.8% | viability, T/C (second compound 0.1 µM, first compound 0.01 µM) 88.3% | viability, T/C [3] 96.2% | viability, T/C [4] 102% | viability, T/C (second compound 0.316 µM, first compound 0.000316 µM) 81.5% | viability, T/C (second compound 0.316 µM, first compound 0.001 µM) 87.2% | viability, T/C (second compound 0.316 µM, first compound 0.00316 µM) 85% | viability, T/C (second compound 0.316 µM, first compound 0.01 µM) 82.4% | viability, T/C [5] 76.4% | viability, T/C [6] 94.5% | viability, T/C (second compound 1 µM, first compound 0.000316 µM) 67% | viability, T/C (second compound 1 µM, first compound 0.001 µM) 65.7% | viability, T/C (second compound 1 µM, first compound 0.00316 µM) 78.4% | viability, T/C (second compound 1 µM, first compound 0.01 µM) 80% | viability, T/C [7] 63.4% | viability, T/C [8] 71.2%
> 100 nM: IC50 (second compound 0.00316 µM) | IC50 (second compound 0.01 µM) | IC50 (second compound 0.0316 µM) | IC50 (second compound 0.1 µM) | IC50 (second compound 0.316 µM) | IC50 (second compound 1 µM)

Cn1ncc(Cl)c1-c1cc(C(=O)NC(CN)Cc2cccc(F)c2)sc1Cl (stereo unspecified) + CC(Nc1ncnc2nc[nH]c12)c1cc2cccc(Cl)c2c(=O)n1-c1ccccc1
479 nM: IC50 (second compound 10 µM)
769 nM: IC50 (second compound 0.1 µM)
inactive: viability, T/C [1] 129% | viability, T/C [2] 90.4% | viability, T/C [9] 68.3% | viability, T/C [10] 45.8% | viability, T/C [11] 26.5% | viability, T/C [3] 97.8% | viability, T/C [4] 87.2% | viability, T/C [13] 71.8% | viability, T/C [14] 39.9% | viability, T/C [15] 27.5% | viability, T/C [16] 9.37% | viability, T/C [5] 93.9% | viability, T/C [6] 103% | viability, T/C [17] 62.8% | viability, T/C [18] 42.6% | viability, T/C [19] 23.8% | viability, T/C [20] 7.95% | viability, T/C [7] 108% | viability, T/C [8] 92.2% | viability, T/C [21] 62.2% | viability, T/C [22] 42.9% | viability, T/C [23] 27.2% | viability, T/C [24] 8.92% | viability, T/C [25] 97.7% | viability, T/C [26] 93.8% | viability, T/C [27] 64.8% | viability, T/C [28] 36.7% | viability, T/C [29] 26.5% | viability, T/C [30] 7.12% | viability, T/C [31] 99.7% | viability, T/C [32] 78.2% | viability, T/C [33] 56.9% | viability, T/C [34] 37.2% | viability, T/C [35] 21.3%
708 nM: IC50 (second compound 0.316 µM)
709 nM: IC50 (second compound 1 µM)
active: viability, T/C [12] 10.4% | viability, T/C [36] 6.29%
646 nM: IC50 (second compound 3.16 µM)
991 nM: IC50 (second compound 0.0316 µM)

CC(Cn1ccc(-c2ccc(C#N)c(Cl)c2)n1)NC(=O)c1cc(C(C)O)[nH]n1 (stereo unspecified) + Cc1nc(NC(=O)N2CCCC2C(N)=O)sc1-c1ccnc(C(C)(C)C(F)(F)F)c1
> 10000 nM: IC50 (second compound 0.0316 µM) | IC50 (second compound 0.1 µM) | IC50 (second compound 0.316 µM) | IC50 (second compound 1 µM) | IC50 (second compound 3.16 µM)
inactive: viability, T/C [1] 86.5% | viability, T/C [2] 95.8% | viability, T/C [9] 95.9% | viability, T/C [10] 87.5% | viability, T/C [11] 82.8% | viability, T/C [12] 67.1% | viability, T/C [3] 92.4% | viability, T/C [4] 91.8% | viability, T/C [13] 87.7% | viability, T/C [14] 89.6% | viability, T/C [15] 77.7% | viability, T/C [16] 66.2% | viability, T/C [5] 91.5% | viability, T/C [6] 84.6% | viability, T/C [17] 87.3% | viability, T/C [18] 81.5% | viability, T/C [19] 78.1% | viability, T/C [20] 68.2% | viability, T/C [7] 70.8% | viability, T/C [8] 74.2% | viability, T/C [21] 68.1% | viability, T/C [22] 69.9% | viability, T/C [23] 63.9% | viability, T/C [24] 62.3% | viability, T/C [25] 53.1% | viability, T/C [26] 54.6% | viability, T/C [27] 47.4% | viability, T/C [28] 51.5% | viability, T/C [29] 57.1% | viability, T/C [30] 52.6% | viability, T/C [31] 38.5% | viability, T/C [32] 38.6% | viability, T/C [33] 35.4% | viability, T/C [34] 40.4% | viability, T/C [35] 36.9% | viability, T/C [36] 37.4%
< 31.6 nM: IC50 (second compound 10 µM)
